# In patent US12636260B2, “Application of α-asarone in preparation of medicine for preventing or treating hemorrhagic stroke” (CHENGDU XINRUI TAIKANG TECHNOLOGY CO., LTD., priority 2021, dated 2026):
# Key:
# [1] = test system: ICH rats; experiment: Short-term neurological function of ICH rats (Garcia score, beam balance test); type: in vivo, rat; details: ICH model; for Beam balance score / Garcia score: 24 hours after modeling
# Procedure: Experimental grouping: At 2 h after endovascular perforation or collagenase VII injection, Zea Longa score was used to evaluate the neurological function of rats. Successful model rats were randomly divided into groups for administration.
# All groups were administrated through the tail vein injection except for group N administrated intraperitoneally.
# The rats were fasted for 12 hours before operation, and were anesthetized with 4% isoflurane, and kept anesthetized with 2% isoflurane. The animals were fixed in the prone position in a stereotaxic apparatus with the body temperature maintained at about 37° C. A traditional skin incision of the head was prepared along the midline. According to the stereotaxic atlas of the rat brain translated by Zhuge Qichao (George Paxinos, Charles Watson, Paxinos, Watson, & Zhuge Qichao. The Rat Brain in Stereotaxic Coordinates [M]. People's Medical Publishing House, 2005), the right caudate nucleus of the rat was determined as 0.0 mm anterior, 3.0 mm lateral to the bregma, and 5.5 mm ventral to the cortical surface. After labeling, we drilled an open window in the skull, and 1 μL of 0.5 U collagenase VII was slowly injected for 5 minutes with a microinjector. After the injection, the needle was stagnated for 8 minutes and slowly withdrawn. Then the scalp was sutured after the burr hole of skull was sealed with a sterile bone wax, and the rats were returned to the cage for normal feeding. The sham group conducted the same procedure as the model group, but received an equal volume of physiological saline into the caudate nucleus.
# According to Zea Longa's neurological function score, the rats were scored 2 hours after the operation when they were awake from anesthesia. Successful model rats with a score of 1 to 3 points were enrolled in the group: • 0 points: no neurological deficits with normal activity; • 1 point: inability to fully extend the contralateral forepaw; • 2 points: the animal appears to turn in circles when crawling; • 3 points: the animal tends to lean to the hemiplegic side; • 4 points: the animal cannot walk spontaneously or loses consciousness. 1.4 Assessment of Short-Term Neurological Function
# The neurological function of rats was comprehensively evaluated with Garcia score and beam balance test 24 hours after modeling. The criteria of Garcia score are shown in Table 1, which evaluates the movement, sensation, climbing and limb symmetry of the rats with the score range of 3 to 18 points. The lower the score, the more severe the neurological injury. The criteria of the beam balance test are shown in Table 2, which evaluated the proprioception and body coordination of rats with the score range of 0 to 6 points. The higher the score, the more severe the neurological injury. Scoring was done independently by a technician blinded to the modeling and drug administration.
# [2] = test system: SAH rats; experiment: Morris water maze and brain tissue atrophy of SAH rats in recovery phase; type: in vivo, rat
# Procedure: Morris water maze was used to evaluate the long-term spatial perception and memory ability of rats in each group, and was performed after the survival observation, i.e., 15 to 19 days after SAH. The water maze was a circular pool with a diameter of 150 cm and a depth of 60 cm. Before the experiment, warm water (24±2)° C. was filled to a depth of 30 cm and colored black with ink. The pool was equally divided into four quadrants, and different signs were pasted on the walls of different quadrants to indicate the difference. A transparent platform with a diameter of 10 cm and a height of 28 cm was placed in the center of one quadrant, and was 2 cm beneath the water. Rats were released from the designated quadrant according to the experimental guidelines. On day 1 to 4, rats were successively released into water from four corresponding quadrants with a 10-minute interval. If the rat found the platform within 60 seconds, it was allowed to remain there for 10 seconds; if not, it was guided to the platform with a rod and allowed to stand there for 10 seconds. On day 5, the platform was removed and the rats were allowed to swim freely for 60 seconds. The escape latency, swimming speed and dwelling time on the target quadrant were recorded using a computerized tracking system (Noldus Ethovision, Tacoma, WA, USA).
# [3] = test system: SAH rats; experiment: Brain water content and blood-brain barrier permeability (Evans blue), SAH rats; type: in vivo, rat; details: 24 hours after operation, group M, medium-dose intravenous, vs model group
# Procedure: After completing the evaluation of 24-hour short-term neurological function, 4% Evans blue solution (2.5 mL/kg) was injected into the right caudal vein of the rats. After circulated for 1 hour, the rats were deeply anesthetized and transcardinally perfused with 100 mL of normal saline to collect the rats' brain. The whole brain was divided into four groups: left hemisphere (LH), right hemisphere (RH), cerebellum (Cb) and brainstem (BS). The left and right hemispheres were coronally divided into two parts, one part was immediately weighed (wet weight) with a balance with an accuracy of 0.1 mg, dried in an oven at 105° C. for 24 hours and weighed again (dry weight). The brain water content was calculated as [(wet weight−dry weight)/wet weight]×100%. The other part of the brain tissue was weighed (wet weight) and emerged into 10 times the volume of pure formamide, incubated at 60° C. for 48 hours, centrifuged at 25° C. for 30 min (10,000 rpm/min). The Evans blue in the supernatant was measured at 622 nm by a UV spectrophotometry, and calculated with a standard curve for quantification. The amount of Evans blue was expressed as μg/g of brain tissue (wet weight).
# [4] = test system: ICH rats; experiment: Ca2+ level and mitochondrial membrane potential in brain tissue, ICH rats; type: in vivo, rat; details: 12-24 hours after operation, group M
# Procedure: The rats were decapitated to collect the brain 12 to 24 hours after modeling. The brain cortex around the hematoma was immediately taken to prepare a single cell suspension by enzymatic digestion (papain: 2 mg/mL; DNAase I: 0.05 mg/mL), with the cell concentration was adjusted to 5×10^6 cells/mL. 100 μL of cell suspension was incubated with 5 μM Fluo-3/AM dye solution or 10 μM Rhodamine 123 dye solution at 37° C. for 45 min. Then the cells were washed twice with PBS (phosphate buffer, pH=7.2-7.4), resuspended with 0.5 mL of PBS, and detected by a flow cytometry at the excitation wavelength of 506 nm and the emission wavelength of 526 nm. The mean fluorescence intensity of Fluo-3 and Rh123 in 10,000 cells was analyzed by FlowJo software.
# [5] = Toxic and side effects observed during all the experiments; type: in vivo; details: during all the experiments of the disclosure
# [6] = test system: ICH rats; experiment: Short-term neurological function of ICH rats (Garcia score, beam balance test); type: in vivo, rat; details: ICH model, 24 hours after modeling; group O, α-asarone emulsion oral administration 40 mg/kg
# [7] = group H, α-asarone emulsion injection 30 mg/kg tail vein
# [8] = group L, α-asarone emulsion injection 7.5 mg/kg tail vein
# [9] = group M, α-asarone emulsion injection 15 mg/kg tail vein
structure (smiles),measurement,setting,value
"C/C=C/c1cc(OC)c(OC)cc1OC [α-asarone, trans-2,4,5-trimethoxy-1-propenylbenzene]",Beam balance score,[1]; [7],3.31
same,Garcia score,[1]; [7],10.01
same,Beam balance score,[1]; [8],3.16
same,Garcia score,[1]; [8],10.60
same,Beam balance score,[1]; [9],3.09
same,Garcia score,[1]; [9],10.68
same,curative effect compared with group V (vinpocetine) and group N (nimodipine),"[1]; groups L and M, 7.5 and 15 mg/kg",better
same,escape latency during the training period,"[2]; Morris water maze, 15 to 19 days after SAH, group M, vs group S",significantly decreased
same,swimming speed,"[2]; Morris water maze, group M vs group S (P<0.05)",significantly faster
same,"time in the target quadrant, spatial probe test","[2]; Morris water maze, group M, vs group S",notably prolonged
same,brain atrophy,"[2]; SAH rats after long-term administration, group M",significantly rescued
same,Evans blue content,[3],significantly reduce
same,brain water content,[3],significantly reduce
same,calcium level in brain tissue,[4]; Fluo-3 flow cytometry,significantly reduce
same,mitochondrial membrane potential in brain tissue,[4]; Rhodamine 123 flow cytometry,stabilize
same,toxic and side effects,[5],no obvious toxic and side effects
same,Beam balance score,[6],3.41
same,Garcia score,[6],10.17
